Test systems include MOLT-4 leukemia; HCT-15 colon; OVCAR-5 ovarian; PC-3 prostate; NCI-H23 lung; UO-31 renal; LOX IMVI melanoma; U251 CNS; A549 NSCLC; IGROV1 ovarian.
Common to all, as to experiment: DTP human tumour cell line panel, 48 h

Where “and” joins values, the source holds several entries; their conditions need not be identical. Equal entries are not always repeated.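 Growth conditions: 96-well plates. Treatment: test compound, 48 hours, 5 concentrations. Analysis: linear interpolation between bracketing concentrations; unreached endpoints set to highest concentration. The concentration for 50% growth inhibition is given as GI50. TGI is the concentration that stops growth completely.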

For `COc1ccc2c(c1)c[n+](C)c1c3cc(OC)c(OC)cc3ccc21`, the GI50 with MOLT-4 leukemia was 0.358 µM and 1.7 µM; in the experiment on OVCAR-5 ovarian it was 1.52 µM and 11.8 µM; with PC-3 prostate it was 1.36 µM and 4.32 µM; in the experiment with NCI-H23 lung it was 1.48 µM and 3.35 µM; with UO-31 renal it was 2.22 µM and 9.28 µM; in the experiment with IGROV1 ovarian, 1.39 µM and 4.4 µM. In addition, the TGI in the experiment on MOLT-4 leukemia is 3.81 µM and 17.9 µM; with HCT-15 colon, 30 µM and > 74.1 µM; with OVCAR-5 ovarian it was 5.17 µM and 25 µM; in the experiment with PC-3 prostate it was 3.84 µM and 16 µM; in the experiment on NCI-H23 lung it was 3.08 µM and 11.8 µM; in the experiment with UO-31 renal, 5.13 µM and 22.5 µM. The TGI in the experiment on LOX IMVI melanoma was 2.65 µM and 4.96 µM; in the experiment on U251 CNS, 2.3 µM and 5.45 µM; in the experiment on A549 NSCLC, 10.3 µM; with IGROV1 ovarian, 2.85 µM and 15.8 µM.

With `O=C1c2cccc3cccc(c23)C(=O)N1CCCCCN1CCN(CCCCCOc2ccc(-c3nc4ccc(N5CCOCC5)cc4[nH]3)cc2)CC1`, the GI50 is 0.264 µM in the experiment with MOLT-4 leukemia; 2.62 µM with HCT-15 colon; over 100 µM in the experiment with OVCAR-5 ovarian; 2.77 µM with PC-3 prostate; 21.2 µM with NCI-H23 lung; 3.47 µM in the experiment with UO-31 renal. Besides, the GI50 with LOX IMVI melanoma is 3.01 µM; with U251 CNS, 5.47 µM; in the experiment on A549 NSCLC, 2.22 µM; in the experiment with IGROV1 ovarian it was 1.76 µM. Besides, the TGI was 2.29 µM in the experiment with MOLT-4 leukemia; 8.63 µM in the experiment with HCT-15 colon; over 100 µM in the experiment on OVCAR-5 ovarian; 17.6 µM in the experiment on PC-3 prostate; 46.6 µM with NCI-H23 lung; 34.7 µM in the experiment on UO-31 renal. Further, the TGI in the experiment on LOX IMVI melanoma came to 7.97 µM; in the experiment on U251 CNS, 10.2 µM; in the experiment on A549 NSCLC it was 5.26 µM; in the experiment with IGROV1 ovarian, 8.08 µM.

As to `CCc1c(Cl)c(C)cc(O)c1Cl`, the TGI in the experiment on MOLT-4 leukemia was 95.2 µM; in the experiment on HCT-15 colon, 38.9 µM; in the experiment with OVCAR-5 ovarian, over 100 µM; with PC-3 prostate, 51.3 µM; with NCI-H23 lung, over 100 µM; in the experiment on UO-31 renal, 56.8 µM. In addition, the TGI with LOX IMVI melanoma is 51.7 µM; in the experiment on U251 CNS, 29 µM; in the experiment with A549 NSCLC, over 100 µM; with IGROV1 ovarian, over 100 µM.

For `Cc1ccc(Nc2oc(-c3ccccc3)nc2[P+](c2ccccc2)(c2ccccc2)c2ccccc2)cc1`, the GI50 was 0.563 µM in the experiment with MOLT-4 leukemia; 0.64 µM in the experiment with HCT-15 colon; 1.63 µM in the experiment on OVCAR-5 ovarian; 0.585 µM with PC-3 prostate; 0.458 µM with NCI-H23 lung; 0.44 µM in the experiment on UO-31 renal. Besides, the GI50 with LOX IMVI melanoma is 0.833 µM; in the experiment with U251 CNS, 0.538 µM; in the experiment with A549 NSCLC it was 0.938 µM; with IGROV1 ovarian it was 0.889 µM. In addition, the TGI with MOLT-4 leukemia turned out to be 2.52 µM; with HCT-15 colon, 2.16 µM; in the experiment with OVCAR-5 ovarian it was 4.38 µM; with PC-3 prostate it was 2.01 µM; in the experiment on NCI-H23 lung, 2.08 µM; in the experiment on UO-31 renal it was 1.65 µM. The TGI with LOX IMVI melanoma was 2.11 µM; with U251 CNS it was 1.71 µM; in the experiment with A549 NSCLC, 3.23 µM; with IGROV1 ovarian it was 2.37 µM.

Turning to `COc1ccccc1Nc1ncc(-c2ccccc2)o1`, the GI50 in the experiment with MOLT-4 leukemia was over 25 µM; in the experiment on HCT-15 colon, over 25 µM; with OVCAR-5 ovarian it was over 25 µM; with PC-3 prostate, over 25 µM; in the experiment on NCI-H23 lung, over 25 µM; in the experiment with UO-31 renal, 13.7 µM. In addition, the GI50 in the experiment on LOX IMVI melanoma, with U251 CNS, in the experiment on A549 NSCLC and in the experiment with IGROV1 ovarian was over 25 µM throughout. Besides, the TGI in the experiment with MOLT-4 leukemia, with HCT-15 colon, in the experiment on OVCAR-5 ovarian, with PC-3 prostate, with NCI-H23 lung and in the experiment with UO-31 renal was over 25 µM each time. Besides, the TGI with LOX IMVI melanoma, with U251 CNS, with A549 NSCLC and in the experiment on IGROV1 ovarian was over 25 µM in each case.

With `COC(=O)C1=CN(CC2=CC(=O)C(C)=CC2=O)C=C(C(=O)OC)C1c1cccc(OC)c1`, the GI50 in the experiment on MOLT-4 leukemia was 3.11 µM; in the experiment on HCT-15 colon it was 16.6 µM; with OVCAR-5 ovarian it was 19 µM; in the experiment on PC-3 prostate, 8 µM; in the experiment with NCI-H23 lung, 18.4 µM; in the experiment on UO-31 renal, 2.65 µM. For the same compound, the GI50 was 17.6 µM in the experiment on LOX IMVI melanoma, 8.47 µM in the experiment with U251 CNS, 25.1 µM with A549 NSCLC and 12.8 µM in the experiment on IGROV1 ovarian. The TGI in the experiment with MOLT-4 leukemia is over 100 µM; in the experiment with HCT-15 colon it was 39 µM; in the experiment with OVCAR-5 ovarian it was 42 µM; in the experiment on PC-3 prostate it was 29.9 µM; in the experiment with NCI-H23 lung, 53.5 µM; with UO-31 renal, over 22.5 µM. For the same compound, the TGI is 42.7 µM with LOX IMVI melanoma, 30.5 µM in the experiment with U251 CNS, over 67.2 µM with A549 NSCLC and over 58.1 µM in the experiment on IGROV1 ovarian.

For `C=C1C(=O)OC2CC(C)C(C(O)CC(C)O)=CCC12` (stereo unspecified), the concentration for total growth inhibition (TGI) worked out at 32.6 µM in the experiment with MOLT-4 leukemia; 41.4 µM with HCT-15 colon; 30.7 µM in the experiment on OVCAR-5 ovarian; 57 µM with PC-3 prostate; 33.3 µM in the experiment with NCI-H23 lung; 30.7 µM with UO-31 renal. Further, the TGI is 25.7 µM with LOX IMVI melanoma, 39.4 µM in the experiment on U251 CNS, over 80.6 µM in the experiment with A549 NSCLC and 43.4 µM in the experiment with IGROV1 ovarian.

By GI50 is commonly meant the concentration giving 50% growth inhibition. One may read the TGI as the concentration at which net growth stops.

For the origin of these results see PubChem BioAssay (NCI).
